US9416154B2, “5′-substituted nucleoside derivatives and methods of use thereof for the treatment of viral diseases” (priority 2011, dated 2016)
Like-named read-outs stand apart in the source and are kept apart here.

Columns and labels:
[1] = system: Huh 7 hepatoma cells containing the subgenomic HCV replicon; assay: Cytotoxicity (MTS assay or GAPDH RNA readout); assay type: cell-based
Experimental: (§1) The effect of the nucleoside derivatives on the proliferation and metabolism of Huh 7 hepatoma cells containing the subgenomic HCV replicon was measured using the MTS assay. Briefly, cells were seeded and dosed with compounds exactly as described in Example 13 above, for replicon EC50 determination. After a 3-day compound incubation period, the MTS assay was performed in accordance with the manufacturer's protocol for the CellTiter 96 Aqueous One Solution Cell Proliferation Assay (Promega, Catalog #G358). Alternatively, after a 3-day compound incubation, the amount of glyceraldehyde-3-phosphate dehydrogenase (GAPDH) RNA in replicon-containing Huh 7 cells was determined using qRT-PCR. CC50 values were derived from 10 serial 2-fold dilutions of the inhibitor in duplicate that yielded 50% inhibition of the MTS or GAPDH RNA readout by comparison with cells treated with vehicle control.

[2] = system: HCV replicon (1b); assay: Cell-based HCV replicon assay
Experimental: To measure cell-based anti-HCV activity of selected compounds of the present invention, replicon cells were seeded at 5000 cells/well in 96-well collagen I-coated Nunc plates in the presence of the test compound. Various concentrations of test compound, typically in 10 serial 2-fold dilutions, were added to the assay mixture, with the starting concentration ranging from 250 μM to 1 μM. The final concentration of dimethylsulfoxide was 0.5%, fetal bovine serum was 5%, in the assay media. Cells were harvested on day 3 by the addition of 1× cell lysis buffer (Ambion cat #8721). The replicon RNA level was measured using real time PCR (Taqman assay). The amplicon was located in 5B. The PCR primers were: 5B.2F, ATGGACAGGCGCCCTGA (SEQ ID. NO. 1); 5B.2R, […] (SEQ ID. NO. 2); the probe sequence was FAM-labeled CACGCCATGCGCTGCGG (SEQ ID. NO. 3). GAPDH RNA was used as endogenous control and was amplified in the same reaction as NS5B (multiplex PCR) using primers and VIC-labeled probe recommended by the manufacturer (PE Applied Biosystem). The real-time RT-PCR reactions were run on ABI PRISM 7900HT Sequence Detection System using the following program: 48° C. for 30 minutes, 95° C. for 10 minutes, 40 cycles of 95° C. for 15 sec, 60° C. for 1 minute. The ΔCT values (CT5B-CTGAPDH) were plotted against the concentration of test compound and fitted to the sigmoid dose-response model using XLfit4 (MDL). EC50 was defined as the concentration of inhibitor necessary to achieve ΔCT=1 over the projected baseline; EC90 the concentration necessary to achieve ΔCT=3.2 over the baseline. Alternatively, to quantitate the absolute amount of replicon RNA, a standard curve was established by including serially diluted T7 transcripts of replicon RNA in the Taqman assay. All Taqman reagents were from PE Applied Biosystems. Such an assay procedure was described in detail in e.g. Malcolm et al., Antimicrobial Agents and Chemotherapy 50: 1013-1020 (2006).

[3] = Cytotoxicity (MTS assay or GAPDH RNA readout); assay type: cell-based; settings: human, replicon-containing Huh 7 cells, 3-day incubation, MTS or GAPDH RNA readout; read-out: 1b CC50
Experimental: as §1

[4] = replicon-containing Huh 7 cells, 3-day incubation, MTS or GAPDH RNA readout, read-out: 1b CC50
[5] = replicon cells, 3-day incubation, replicon RNA by real time PCR (Taqman), read-out: 1b EC50
[6] = Hepatitis C virus, 72 h, read-out: 1b EC50, replicon cells, 3-day incubation, replicon RNA by real time PCR (Taqman)
[7] = read-out: 1b EC50, replicon cells, 3-day incubation, replicon RNA by real time PCR (Taqman)
[8] = Hepatitis C virus, 72 h, replicon cells, 3-day incubation, replicon RNA by real time PCR (Taqman), read-out: 1b EC50

| Structure (SMILES) | CC50 at 3 day [3] [µM] | EC50 [2, 6] [µM] | further results |
| --- | --- | --- | --- |
| CCCCOC(=O)[C@H](C)NP(=O)(Oc1cccc2ccccc12)O[C@H](C)[C@H]1O[C@@H](n2ccc3c(N)ncnc32)[C@](C)(O)[C@@H]1O (some centres unmarked) [Compound 2] |  |  | CC50 [1, 4]: 44 µM; EC50 [2, 5]: 33 µM |
| COC(=O)[C@H](C)NP(=O)(Oc1ccccc1)O[C@H](C)[C@H]1O[C@@H](n2cc(F)c3c(N)ncnc32)[C@](C)(O)[C@@H]1O (some centres unmarked) [Compound 11] | > 100 | 37 |  |
| CCOC(=O)[C@H](C)NP(=O)(Oc1ccccc1)O[C@@H](C)[C@H]1O[C@@H](n2ccc3c(N)ncnc32)[C@](C)(O)[C@@H]1O (some centres unmarked) [Compound 39] | > 100 | > 100 |  |
| CC(O)[C@H]1O[C@@H](n2cc(I)c3c(N)ncnc32)[C@](C)(F)[C@@H]1O (some centres unmarked) [Compound 13] |  |  | CC50 [1]: 30 µM; EC50 [2, 5]: 58 µM |
| CCCCOC(=O)[C@H](C)NP(=O)(Oc1cccc2ccccc12)O[C@H](CC)[C@H]1O[C@@H](n2cc(F)c3c(N)ncnc32)[C@](C)(O)[C@@H]1O (some centres unmarked) [Compound 6] | 5.7 | 9.3 |  |
| CCCCOC(=O)[C@H](C)NP(=O)(Oc1cccc2ccccc12)OC(C)[C@H]1O[C@@H](n2ccc3c(N)ncnc32)[C@](C)(O)[C@@H]1O (some centres unmarked) [Compound 44] | 51 |  | EC50 [2, 7]: 2 µM |
| CCOC(=O)[C@H](C)NP(=O)(Oc1cccc2ccccc12)OC(C)[C@H]1O[C@@H](n2ccc3c(N)ncnc32)[C@](C)(F)[C@@H]1O (some centres unmarked) [Compound 18] | > 100 | > 100 |  |
| CCOC(=O)[C@H](C)NP(=O)(Oc1ccc(Cl)cc1)OC(C)[C@H]1O[C@@H](n2ccc3c(N)ncnc32)[C@](C)(F)[C@@H]1O (some centres unmarked) [Compound 20] | > 100 | > 100 |  |
| CC[C@@H](O)[C@H]1O[C@@H](n2cc(F)c3c(N)ncnc32)[C@](C)(O)[C@@H]1O [Compound 5] | 24 |  | EC50 [2, 8]: 23 µM |
| CC(C)(O)[C@H]1O[C@@H](n2ccc3c(N)ncnc32)[C@](C)(F)[C@@H]1O [Compound 30] |  |  | CC50 [1]: > 100 µM; EC50 [2, 5]: > 100 µM |
| C[C@@H](O)C1O[C@@H](n2ccc3c(N)ncnc32)[C@](C)(O)[C@@H]1O (some centres unmarked) [Compound 27] |  |  | CC50 [1, 4]: > 100 µM; EC50 [2, 5]: > 100 µM |
| C[C@H](O)[C@H]1O[C@@H](n2cc(F)c3c(N)ncnc32)[C@](C)(O)[C@@H]1O [Compound 9] |  |  | CC50 [1]: > 100 µM; EC50 [2, 5]: > 100 µM |
| COC(=O)[C@H](C)NP(=O)(Oc1cccc2ccccc12)OC(C)[C@H]1O[C@@H](n2ccc3c(N)ncnc32)[C@](C)(O)[C@@H]1O (some centres unmarked) [Compound 42] | > 100 | 4.8 |  |
| CC(OP(=O)(N[C@@H](C)C(=O)OCC(C)(C)C)Oc1ccccc1)[C@H]1O[C@@H](n2ccc3c(N)ncnc32)[C@](C)(O)[C@@H]1O (some centres unmarked) [Compound 41] | > 100 | 18 |  |
| CC(C)OC(=O)[C@H](C)NP(=O)(Oc1cccc2ccccc12)OC(C)[C@H]1O[C@@H](n2ccc3c(N)ncnc32)[C@](C)(F)[C@@H]1O (some centres unmarked) [Compound 19] | > 20 | > 20 |  |
| CC(C)OC(=O)[C@H](C)NP(=O)(Oc1ccccc1)OC(C)[C@H]1O[C@@H](n2ccc3c(N)ncnc32)[C@](C)(O)[C@@H]1O (some centres unmarked) [Compound 43] | 98 | 14 |  |
| COC(=O)[C@H](C)NP(=O)(Oc1ccccc1)O[C@@H](C)[C@H]1O[C@@H](n2cc(F)c3c(N)ncnc32)[C@](C)(O)[C@@H]1O (some centres unmarked) [Compound 12] | > 100 | 39 |  |
| CC(O)[C@H]1O[C@@H](n2ccc3c(N)ncnc32)[C@](C)(F)[C@@H]1O (some centres unmarked) [Compound 14] | > 100 |  | EC50 [2, 8]: > 100 µM |
| CCCCOC(=O)[C@H](C)NP(=O)(Oc1cccc2ccccc12)O[C@H](C)[C@H]1O[C@@H](n2cc(F)c3c(N)ncnc32)[C@](C)(O)[C@@H]1O (some centres unmarked) [Compound 4] | 84 | > 100 |  |
| CC(C)(O)[C@H]1O[C@@H](n2ccc3c(N)ncnc32)[C@](C)(O)[C@@H]1O [Compound 31] |  |  | CC50 [1]: > 100 µM; EC50 [2, 5]: > 100 µM |

| Structure (SMILES) | CC50 at 3 day [3] [µM] | EC50 [2, 6] [µM] | further results |
| --- | --- | --- | --- |
| C[C@H](O)C1O[C@@H](n2cc(F)c3c(N)ncnc32)[C@](C)(F)[C@@H]1O (some centres unmarked) [Compound 25] |  |  | CC50 [1, 4]: > 100 µM; EC50 [2, 5]: > 100 µM |
| COC(=O)[C@H](C)NP(=O)(Oc1ccccc1)O[C@H](C)[C@H]1O[C@@H](n2ccc3c(N)ncnc32)[C@](C)(O)[C@@H]1O (some centres unmarked) [Compound 34] | > 100 | > 100 |  |
| CC(C)OC(=O)[C@H](C)NP(=O)(Oc1ccc(Cl)cc1)OC(C)[C@H]1O[C@@H](n2ccc3c(N)ncnc32)[C@](C)(F)[C@@H]1O (some centres unmarked) [Compound 21] | > 100 | > 100 |  |
| CCOC(=O)[C@H](C)NP(=O)(Oc1ccccc1)O[C@H](C)[C@H]1O[C@@H](n2ccc3c(N)ncnc32)[C@](C)(O)[C@@H]1O (some centres unmarked) [Compound 38] | > 100 | > 100 |  |
| CCCCOC(=O)[C@H](C)NP(=O)(Oc1cccc2ccccc12)OC(C)[C@H]1O[C@@H](n2ccc3c(N)ncnc32)[C@](C)(O)[C@@H]1O (some centres unmarked) [Compound 45] |  |  | CC50 [1, 4]: > 100 µM; EC50 [2, 7]: 22 µM |
| COC(=O)[C@H](C)NP(=O)(Oc1ccccc1)OC(C)[C@H]1O[C@@H](n2ccc3c(N)ncnc32)[C@](C)(O)[C@@H]1O (some centres unmarked) [Compound 40] | > 100 | 21 |  |
| COC(=O)[C@H](C)NP(=O)(Oc1ccccc1)O[C@@H](C)[C@H]1O[C@@H](n2ccc3c(N)ncnc32)[C@](C)(O)[C@@H]1O (some centres unmarked) [Compound 35] | > 100 | > 100 |  |
| CCCCOC(=O)[C@H](C)NP(=O)(Oc1cccc2ccccc12)O[C@H](CC)[C@H]1O[C@@H](n2ccc3c(N)ncnc32)[C@](C)(O)[C@@H]1O (some centres unmarked) [Compound 8] | 30 | 13 |  |
| CC(C)OC(=O)[C@H](C)NP(=O)(Oc1cccc2ccccc12)OC(C)(C)[C@H]1O[C@@H](n2ccc3c(N)ncnc32)[C@](C)(F)[C@@H]1O (some centres unmarked) [Compound 32] | > 20 | > 20 |  |
| CC(C)OC(=O)[C@H](C)NP(=O)(Oc1ccccc1)OC(C)[C@H]1O[C@@H](n2ccc3c(N)ncnc32)[C@](C)(F)[C@@H]1O (some centres unmarked) [Compound 17] | > 100 | > 100 |  |
| CC(C)OC(=O)[C@H](C)NP(=O)(Oc1ccccc1Cl)OC(C)[C@H]1O[C@@H](n2ccc3c(N)ncnc32)[C@](C)(F)[C@@H]1O (some centres unmarked) [Compound 23] | > 100 | > 100 |  |
| CC[C@@H](OP(=O)(N[C@@H](C)C(=O)OC)Oc1ccccc1)[C@H]1O[C@@H](n2cc(F)c3c(N)ncnc32)[C@](C)(O)[C@@H]1O (some centres unmarked) [Compound 10] | 20 | 15 |  |
| CC(O)C1O[C@@H](n2cc(F)c3c(N)ncnc32)[C@](C)(F)[C@@H]1O (some centres unmarked) [Compound 24] |  |  | CC50 [1, 4]: > 100 µM; EC50 [2, 5]: > 100 µM |
| CCOC(=O)[C@H](C)NP(=O)(Oc1ccccc1)OC(C)[C@H]1O[C@@H](n2ccc3c(N)ncnc32)[C@](C)(F)[C@@H]1O (some centres unmarked) [Compound 16] |  |  | CC50 [1]: > 100 µM; EC50 [2, 5]: > 100 µM |
| C[C@H](O)C1O[C@@H](n2ccc3c(N)ncnc32)[C@](C)(O)[C@@H]1O (some centres unmarked) [Compound 28] |  |  | CC50 [1]: > 100 µM; EC50 [2, 5]: > 100 µM |
| CCOC(=O)[C@H](C)NP(=O)(Oc1ccccc1Cl)OC(C)[C@H]1O[C@@H](n2ccc3c(N)ncnc32)[C@](C)(F)[C@@H]1O (some centres unmarked) [Compound 22] | > 100 | > 100 |  |
| C[C@@H](O)[C@H]1O[C@@H](n2ccc3c(N)ncnc32)[C@](C)(O)[C@@H]1O [Compound 1] |  |  | CC50 [1]: 78 µM; EC50 [2, 5]: 61 µM |
| CC(O)[C@H]1O[C@@H](n2cc(-c3cc[nH]n3)c3c(N)ncnc32)[C@](C)(F)[C@@H]1O (some centres unmarked) [Compound 33] | > 100 |  | EC50 [2, 8]: > 100 µM |
| C[C@@H](O)[C@H]1O[C@@H](n2cc(F)c3c(N)ncnc32)[C@](C)(O)[C@@H]1O [Compound 3] | > 100 |  | EC50 [2, 8]: > 100 µM |
| CC[C@@H](O)[C@H]1O[C@@H](n2ccc3c(N)ncnc32)[C@](C)(O)[C@@H]1O [Compound 7] | > 100 |  | EC50 [2, 8]: > 100 µM |
